According to paper PMC4356641 (European journal of oral sciences, 2015):
Several values for one entry are separate records, joined by “and”; a condition that tells them apart may be missing. Identical values can stand only once.

Columns and labels:
MMP-2 = conditions: cited from earlier work
MMP-8 = conditions: cited from earlier work
MMP-9 = conditions: cited from earlier work
[1] = tested on: total endogenous MMP activity of dentin (matrix-bound MMPs); format: biochemical, human; conditions: 1.0% w/v aqueous BAC applied for 60 s; relative to untreated control with 0% inhibition; mean (SD), n = 10
MMP = conditions: cited from earlier work
[2] = tested on: demineralized dentin collagen; conditions: cited from earlier work
soluble MMP-9 = conditions: cited from earlier work

## [H]/N=C(\N/C(=N/[H])NCCCCCCNC(=N)NC(=N)Nc1ccc(Cl)cc1)Nc1ccc(Cl)cc1 [CHX, Chlorhexidine]
MMP-2
  Inhibition of MMP-2: potent inhibitor
MMP-8
  Inhibition of MMP-8: potent inhibitor
MMP-9
  Inhibition of MMP-9: potent inhibitor

## Benzalkonium chloride [BAC]
[1]
  % MMP inhibition (total MMP activity): 54% and 54.2 (9.0) ^C %
MMP; 1.0% BAC
  MMP inhibition: 55–66%
MMP; 2.0% BAC
  MMP inhibition relative to 1.0% BAC: did not yield additional MMP inhibition

## C=C(C)C(=O)OCCCCCCCCCCCC[n+]1ccccc1.[Br-] [MDPB, 12-methacryloyloxydodecylpyridinium bromide]
[2]
  Inhibition of degradation of demineralized dentin collagen: almost completely inhibited
Soluble MMP-9
  Inhibition of soluble MMP-9: effectively inhibited soluble MMP-9 as or more effectively as Galardin
